Data from article PMC4434572, “Identification of novel drugs to target dormant micrometastases” (BMC Cancer, 2015).
Where two headings read alike, the source gives them in different places.

Columns and labels:
[1] = system: 4T1 stem cells (CD44v3highALDH1high 4T1 cells); experiment: Tumor cell growth inhibition of sphere-derived cancer stem cells (CellTiter-Glo); type: cell-based, mouse; settings: for Fold change: stem cell EC50 vs parental EC50
Experimental: Sphere formation to further increase the fraction of cancer stem cells was induced by suspending CD44v3highALDH1high 4T1 cells in 1:1 Matrigel/basal medium in a total of volume of 100 μl. Samples (5 × 10^4 cells) were then plated around the rims of wells in a 12-well plate and allowed to solidify at 37 °C for 10 min before 1 ml basal medium (with B27 plus 20 ng/mL EGF, 10 ng/mL FGF and 4 μg/mL insulin) was added. Medium was replenished every 3-days. Ten days after plating, spheres (tight, spherical, nonadherent masses >40 μm in diameter) per well were counted, and at least 100 spheres per group were measured. The number of spheres containing CD44v3highALDH1high 4T1 cells in each well and expressed as sphere forming units (SFU) as described previously. The number of SFUs per well was counted in triplicate wells for each condition.
To recover CD44v3highALDH1high 4T1 cells from the spheres, Matrigel–containing wells were treated with 1 mg/ml Dispase solution (Gibco). Spheres were then digested with trypsin and 0.05 % EDTA. CD44v3highALDH1high cells dissociated from spheres were counted by hemacytometer and replated to generate spheres of next generation. Serial passage of individual spheres was regularly performed in order to verify self-renewal capability of cells associated the spheres. Measurement of growth for CD44v3highALDH1high cells (dissociated from spheres) was also performed by incubating these cells in serum-free RPMI-1640 medium for 3-weeks using MTT-based growth assay as described previously.
To analyze tumor cell growth properties, sphere-derived CD44v3highALDH1high 4T1 cells were incubated in basal medium (with B27 plus 20 ng/mL EGF, 10 ng/mL FGF and 4 μg/mL insulin). Medium was replenished every 3-days. Twenty-one days after plating, the number of cell growth was then counted under a microscope at low magnification. In some cases, these sphere-derived CD44v3highALDH1high 4T1 cells were also treated with DT compounds for 5 days or doxorubicin (range 1 μM to 1 mM) for 5 days at 37 °C. The CellTiter-Glo® Luminescent Cell Viability Assay (Promega, Madison, WI) was utilized to determine the number of metabolically active cells based on the quantification of adenosine triphosphate (ATP). The percentage of […] relative to untreated controls was plotted as a linear function of drug concentration. The 50 % inhibitory concentration (IC50) was identified as the concentration of drug required to achieve a 50 % growth inhibition relative to untreated controls.
A stem cell–enriched cell population was prepared as described previously by sorting for ALDH1 and CD44v3. The identification of aldehyde dehydrogenase1 (ALDH1) activity from tumor–derived 4T1 Luc2-GFP cells (PerkinElmer, Waltham, MA) was conducted using the ALDEFLUOR kit (StemCell Technologies, Durham, NC). Specifically, tumor cells were suspended in ALDEFLUOR assay buffer containing ALDH1 substrate (BAAA, […] per 1 × 10^6 cells) and incubated for 30 min at 37 °C. As a negative control, 4T1 cells were treated with a specific ALDH1 inhibitor, […] diethylaminobenzaldehyde (DEAB). Next, for labeling cell surface marker, tumor–derived 4T1 cells were suspended in 100 μl ALDEFLUOR buffer followed by incubating with 20 μl allophycocyanin (APC)-labeled anti-CD44v3 antibody (recognizing the v3-specific domain of CD44) or APC-labeled normal mouse IgG (as a control) (BD Bioscience, San Jose, CA) for 15 min at 4 °C. For FACS sorting, tumor cells were incubated in PBS buffer followed by FACS (BD FACS Aria llu, BD Bioscience, San Jose, CA) sorting using dual-wavelength analysis as described previously. The parental cell line contained 2 % CD44v3highALDH1high cells but the final sorted cells contained 18 % CD44v3highALDH1high cells, a 9-fold enrichment.

4T1 Luc2-GFP cells = experiment: Orthotopic 4T1 syngeneic model of triple-negative breast cancer with natural lung metastasis; type: in vivo, BALB/c mice; settings: for number of large multicellular micrometastases and vascularized macrometastases to the lung: i.p. or osmotic pump
Experimental: 4T1 Luc2-GFP cells (PerkinElmer, Waltham, MA) were cultured in DMEM high glucose media with 2 mM pyruvate, 2 mM glutamine, 2 % Pen/Strep and 10 % Cosmic Calf Serum (Mediatech, Manassas, VA). To prepare cells for injection they were removed from flasks, counted using the TC10 counting system (BioRad, Hercules, CA) and checked for viability. Cells were then washed with PBS, pelleted and taken up at a concentration of 75,000 cells/ml; 100 μl of cell suspension (7,500 cells) was injected subcutaneously (bevel side up) into mammary fat pad #4 of 8 weeks old female BALB/c mice (NCI National Laboratory Frederick/Charles River animal production program). All animals were weighed and tumors were measured using calipers three times weekly. Beginning one week after implantation, which is when micrometastatic cells begin to arrive in the lungs, animals were treated three times per week with intraperitoneal DT310 or DT320 at their NOAEL dose of 75 mg/kg three times week dissolved in saline or by osmotic pump. The osmotic pumps (Alzet #2004) delivered an NOAEL dose of 23.4 and 26.7 μg/h of DT310 and DT320, respectively, for 4 weeks and were implanted as directed subcutaneously posterior to scapulae. Docetaxel was delivered once weekly intraperitoneally at its MTD of 15 mg/kg and doxorubicin delivered once weekly at its MTD of 1 mg/kg in 5 % N-Methyl-2-pyrrolidone, 5 % Solutol HS, and 90 % saline. GFP positive cells were imaged with excitation of GFP emission using a Leica Model Z16 APO fluorescence microscope equipped for a wide field, a large depth of field and 0.57–9.2X zoom capability. GFP-positive objects were counted and scored as to whether they were […], clumps of less than ten cells without a visible vasculature, as determined by co-injection of tetramethylrhodamine labeled dextran (2 million MW).

[2] = suspension culture, 5 days, read-out: EC50 4T1 stem cells in suspension culture
[3] = i.p. injection or osmotic pump, vs untreated

Row | Compound | Fold change [1] | EC50 [1, 2] | primary tumor growth (4T1 Luc2-GFP cells; [3]) | number of large multicellular micrometastases and vascularized macrometastases to the lung (4T1 Luc2-GFP cells) | number of single micrometastatic cells and small micrometastases in lung (4T1 Luc2-GFP cells; osmotic pump administration) | EC50 ([1]; grown on SISgel, read-out: EC50 4T1 stem cells grown on SISgel) | EC50 ([1]; Mus musculus, 4T1, 120 h, suspension culture, 5 days, read-out: EC50 4T1 stem cells in suspension culture) | primary tumor growth (4T1 Luc2-GFP cells; administered i.p. at MTD)
1 | O=S(=O)([O-])c1ccc2c(N=Nc3cccc4ccccc34)c(O)c(S(=O)(=O)[O-])cc2c1.[Na+].[Na+] [DT310, 4-(1-naphthalenylhydrazinylidene) -3-oxonaphthalene-2,7-disulfonic acid] | 9.8 | 141 µM | significant reduction | most sharply | significant effect | – | – | –
2 | O=S(=O)([O-])c1cc(O)c2c(O)c(N=Nc3cccc4ccccc34)c(S(=O)(=O)[O-])cc2c1.[Na+].[Na+] [DT320, 4,5-Dihydroxy-3-(1-naphthalenylazo)-2,7-naphthalenedisulfonic acid disodium salt] | 2.5 | 50 µM | significant reduction | – | – | 71 µM | – | –
3 | COc1cccc2c1C(=O)c1c(O)c3c(c(O)c1C2=O)C[C@@](O)(C(=O)CO)C[C@@H]3O[C@H]1C[C@H](N)[C@H](O)[C@H](C)O1 [Doxorubicin, reference compound] | 134.0 | – | – | only minimal effects | – | – | 630 µM | small effect
